For this experiment, the system named is Enterococcus faecalis type strain NCTC 775. The format is cell-based.

Turning to `CC(=O)O.CCn1cc[n+](C)c1` [[C2mim]OAc, 1-Ethyl-3-methylimidazolium acetate], the “23S rRNA gene copies in 2.5 μl of the DNA extracts” value is around 6.48±0.02 and the “cell lysis efficiency with varying IL concentration” value was “almost steadily decreased with its respective concentration”.

With `CCCCCC(=O)[O-].C[N+](C)(C)CCO` [[Cho]Hex, Choline hexanoate], the “23S rRNA gene copies in 2.5 μl of the DNA extracts” value is around 6.49±0.11; the “cell lysis efficiency with varying IL concentration” value is “slightly improved towards a concentration of 50% (w/v), only decreasing with lower concentrations of 30% (w/v) and 10% (w/v)”.

The values above are taken from patent publication US20210380929A1, “METHODS, APPARATUS AND KITS FOR BACTERIAL CELL LYSIS” (TECHNISCHE UNIVERSITÄT WIEN, priority 2018, published 2021).
